Source: patent publication US20170354645A1, “METHODS FOR TREATING KIDNEY DISORDERS” (Eli Lilly and Company, priority 2014, published 2017)

How the values were obtained:
[1] = test system: mouse remnant kidney model; experiment: mouse remnant kidney model (5/6th nephrectomy) of chronic renal failure; format: in vivo; conditions: 10 mg/kg orally once daily
Method: The purpose of this assay is to analyze the compound of Formula I in a mouse chronic renal failure model, and particularly the ability to improve albuminuria and renal histopathological lesions. This assay is known as the mouse remnant kidney model, where following a unilateral nephrectomy, partial surgical removal of approximately ⅓ of the remaining kidney is carried out to replicate chronic renal failure. This model is sometimes also referred to as a “5/6th nephrectomy” model that was originally developed in rat. A description of this model may be found in published US patent application US 2014/0271675 (Qi, et al.) and (Leelahavanichkul, et al. (2010) Kidney Int. 78(11): 1136-1153.
Thirty-five eight to nine week old mice (strain 129/SvEv from Taconic) are employed in the model, and all have surgeries. A sham group having five mice have surgeries where the kidneys are not removed. The mice in the remaining two groups having fifteen mice each undergo remnant surgery. The surgeries take place approximately three weeks prior to the dosing portion of the study. The dosing portion of the study is 85 days long.
(§1) The oral vehicle for testing the compound of Formula I is 5% Kolliphor® HS 15, 5% EtOH, NaCMC 1%/SLS 0.5%/Antifoam 0.05%/Povidone 0.085% from Ricca Chemical Company. The sham group is fed a conventional diet (Purina Formulab Diet 5008) and is not dosed with vehicle or the compound of Formula I during the dosing portion of the study. One of the remaining two groups is orally dosed vehicle once daily (10 ml/kg), and the other group is orally dosed once daily with the compound of Formula I at 10 mg/kg, in vehicle. Both dosing groups receive a conventional diet (Purina Formulab Diet 5008) during the dosing portion of the study.
(§2) Spot urine samples are collected on day −7 prior to the dosing portion of the study. Urine samples are taken weekly during the dosing portion of the study. Body weights are measured on days 15, 29, 43, 57, 64, 71, and 78. Blood samples are taken at week 4 of the dosing portion of the study a well as at the study termination (day 84). At week 4 of the dosing portion of the study, the mean serum concentration of the compound of Formula I 24 hours after a 10 mg/kg dose is 49±66 ng/ml.

[2] = serum concentration in remnant kidney mice; format: in vivo; conditions: 129/SvEv, mouse, week 4 of dosing, 24 hours after a 10 mg/kg oral dose, once daily
Method: as §1, §2

[3] = renal morphology, compared with vehicle treatment

Cc1cc(OCc2c(-c3ccccc3OC(F)(F)F)noc2C2CC2)ccc1-c1ccc2c(C(=O)O)csc2c1 [compound of Formula I, 6-{4-[5-Cyclopropyl-3-(2-trifluoromethoxy-phenyl)-isoxazol-4-ylmethoxy]-2-methyl-phenyl}-benzo[b]thiophene-3-carboxylic acid]
reduction in urine ACR (albumin/creatinine ratio) ([1]; remnant mice, observed within 2 weeks, persists through end of 85-day dosing): 32-38% | interstitial inflammation ([1]; renal morphology): mildly reduced | tubular regeneration ([1]; renal morphology): mildly reduced | incidence and severity of glumerulosclerosis [1, 3]: notably reduced | incidence and severity of tubular protein [1, 3]: notably reduced | incidence of tubular changes (dilation, atrophy) [1, 3]: reduced | concentration at 24 h [2]: 49 ± 66 ng/mL
